Assay results taken from BindingDB's records for doi:10.7270/Q2251GJ9 (The Scripps Research Institute Molecular Screening Center, 2007).

Molecular target: Sphingosine 1-phosphate receptor 1 (Homo sapiens, UniProt P21453)
Assay: direct activation of human S1P1 – cell-based, agonist mode, 60K MLSMR set, dose response (AID 468)
[1] = inactive by the depositor's call

Chain of Sphingosine 1-phosphate receptor 1 (P21453 whole entry): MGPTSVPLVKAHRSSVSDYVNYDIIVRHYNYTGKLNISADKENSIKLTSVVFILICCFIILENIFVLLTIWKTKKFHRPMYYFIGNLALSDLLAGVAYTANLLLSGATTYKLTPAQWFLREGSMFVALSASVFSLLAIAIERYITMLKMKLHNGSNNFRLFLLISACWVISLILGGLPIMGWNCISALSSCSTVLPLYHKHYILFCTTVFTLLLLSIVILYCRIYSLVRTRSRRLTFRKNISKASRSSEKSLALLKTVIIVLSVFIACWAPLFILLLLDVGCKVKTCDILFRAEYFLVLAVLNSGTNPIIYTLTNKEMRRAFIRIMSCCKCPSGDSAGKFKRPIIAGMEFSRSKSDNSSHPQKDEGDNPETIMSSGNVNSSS

SMILES | EC50 [1] [µM] | EC50 [µM]
CCN(CC)S(=O)(=O)c1cc(C(=O)Nc2ccncc2)ccc1Cl [4-chloranyl-3-(diethylsulfamoyl)-N-pyridin-4-yl-benzamide] | 52.3 | –
Cc1cc(N2CCOCC2)nc(NCc2ccccc2)n1 [4-methyl-6-(4-morpholinyl)-N-(phenylmethyl)-2-pyrimidinamine] | 13.2 | –
Cc1ccc(S(=O)(=O)Nc2ccc3ncccc3c2)cc1 [4-methyl-N-(6-quinolinyl)benzenesulfonamide] | – | 7.8
Cc1nc2ncnn2c(N2CCN(c3cccc(C(F)(F)F)c3)CC2)c1C [5,6-Dimethyl-7-[4-(3-trifluoromethyl-phenyl)-piperazin-1-yl]-[1,2,4]triazolo[1,5-a]pyrimidine] | 14.1 | –
Cc1sc2ncnc(Sc3nnnn3-c3ccccc3)c2c1C [5,6-dimethyl-4-(1-phenyltetrazol-5-yl)sulfanylthieno[2,3-d]pyrimidine] | – | > 95
c1ccc(C(Cc2nc(-c3cccnc3)no2)c2ccccc2)cc1 [5-(2,2-diphenylethyl)-3-(3-pyridinyl)-1,2,4-oxadiazole] | – | 2.82
COc1ccc(-c2noc(-c3cccc(OC)c3OC)n2)cc1OC [5-(2,3-dimethoxyphenyl)-3-(3,4-dimethoxyphenyl)-1,2,4-oxadiazole] | – | 1.45
COc1ccc(-c2noc(-c3ccccc3F)n2)cc1 [5-(2-fluorophenyl)-3-(4-methoxyphenyl)-1,2,4-oxadiazole] | – | 7.38
O=C(Nc1ccc(O)cc1)c1cc2n(n1)C(C(F)(F)F)CC(c1ccco1)N2 (configuration not stated) [5-(2-furanyl)-N-(4-hydroxyphenyl)-7-(trifluoromethyl)-1,5,6,7-tetrahydropyrazolo[1,5-a]pyrimidine-2-carboxamide] | – | 3.63
COc1ccccc1-c1nc(-c2cccc(C)c2)no1 [5-(2-methoxyphenyl)-3-(3-methylphenyl)-1,2,4-oxadiazole] | – | 1.34
COc1ccccc1-c1cc(C(=O)Nc2ccccc2SC)no1 [5-(2-methoxyphenyl)-N-(2-methylsulfanylphenyl)-1,2-oxazole-3-carboxamide] | – | 6.26
COc1ccccc1-c1cc(C(=O)Nc2cc(C)nn2-c2ccccc2)no1 [5-(2-methoxyphenyl)-N-(3-methyl-1-phenyl-1H-pyrazol-5-yl)isoxazole-3-carboxamide] | 47 | –
CCOc1ccc(-c2nc(-c3ccc(OC)cc3)no2)cc1OCC [5-(3,4-Diethoxy-phenyl)-3-(4-methoxy-phenyl)-[1,2,4]oxadiazole] | – | 0.568
CCOc1ccc(-c2nc(-c3ccccc3)no2)cc1OCC [5-(3,4-diethoxyphenyl)-3-phenyl-1,2,4-oxadiazole] | – | 0.147
COc1ccc(-c2nc(-c3ccccc3OC)no2)cc1OC [5-(3,4-dimethoxyphenyl)-3-(2-methoxyphenyl)-1,2,4-oxadiazole] | – | 0.166
COc1ccc(-c2nc(-c3cccc(C)c3)no2)cc1OC [5-(3,4-dimethoxyphenyl)-3-(3-methylphenyl)-1,2,4-oxadiazole] | – | 1.48
COc1ccc(-c2nc(-c3ccncc3)no2)cc1OC [5-(3,4-dimethoxyphenyl)-3-(4-pyridyl)-1,2,4-oxadiazole] | – | 1.85
COc1ccc(-c2nc(-c3cccc(C(F)(F)F)c3)no2)cc1OC [5-(3,4-dimethoxyphenyl)-3-[3-(trifluoromethyl)phenyl]-1,2,4-oxadiazole] | 22.3 | –
COc1ccccc1OCc1nc(C#N)c(N2CC(C)CC(C)C2)o1 (configuration not stated) [5-(3,5-dimethyl-1-piperidinyl)-2-[(2-methoxyphenoxy)methyl]-4-oxazolecarbonitrile] | – | 4.02
Cc1cc(C)cc(-c2nc(-c3ccncc3)no2)c1 [5-(3,5-dimethylphenyl)-3-(4-pyridyl)-1,2,4-oxadiazole] | – | 2.05
CCOc1ccc(C2CC(c3cccc(OC)c3OC)n3nnnc3N2)cc1Cl (configuration not stated) [5-(3-chloranyl-4-ethoxy-phenyl)-7-(2,3-dimethoxyphenyl)-1,5,6,7-tetrahydro-[1,2,3,4]tetrazolo[1,5-a]pyrimidine] | – | > 95
COc1cccc(-c2cc(C(=O)Nc3ccccc3SC)no2)c1 [5-(3-methoxyphenyl)-N-(2-methylsulfanylphenyl)-1,2-oxazole-3-carboxamide] | 18 | –
CC(C)N1C(=O)CCC1C(=O)N1CCC(Cc2ccccc2)CC1 (configuration not stated) [5-(4-benzylpiperidine-1-carbonyl)-1-isopropyl-2-pyrrolidone] | – | > 95
COc1ccccc1-n1nnnc1S(=O)(=O)Cc1ccc(Cl)cc1 [5-(4-chlorobenzyl)sulfonyl-1-(2-methoxyphenyl)tetrazole] | – | 3.61
CCc1ccc(-c2nc(-c3ccncc3)no2)cc1 [5-(4-ethylphenyl)-3-(4-pyridyl)-1,2,4-oxadiazole] | – | 5.7
O=C(Nc1ccccc1C(F)(F)F)c1cc(-c2ccc(O)cc2)on1 [5-(4-hydroxyphenyl)-N-[2-(trifluoromethyl)phenyl]isoxazole-3-carboxamide] | – | 0.964

SMILES | EC50 [1] [µM] | EC50 [µM]
c1ccc(-c2ccc(-c3nc(-c4cccnc4)no3)cc2)cc1 [5-(4-phenylphenyl)-3-(3-pyridinyl)-1,2,4-oxadiazole] | – | 2.35
c1ccc(-c2ccc(-c3nc(-c4ccncc4)no3)cc2)cc1 [5-(4-phenylphenyl)-3-(4-pyridyl)-1,2,4-oxadiazole] | 10.4 | –
Cc1cccc(-c2nc(C#N)c(NC3CCCCC3)o2)c1 [5-(cyclohexylamino)-2-(3-methylphenyl)-1,3-oxazole-4-carbonitrile] | 13.4 | –
O=C(Nc1nc2c(s1)CCCC2)c1cc2n(n1)C(C(F)(F)F)CC(C1CC1)N2 (configuration not stated) [5-Cyclopropyl-7-trifluoromethyl-4,5,6,7-tetrahydro-pyrazolo[1,5-a]pyrimidine-2-carboxylic acid (4,5,6,7-tetrahydro-benzothiazol-2-yl)-amide] | – | 0.996
CC(C)c1cc(C(F)(F)F)n2nc(C(=O)Nc3ccc4c(c3)OCO4)cc2n1 [5-Isopropyl-7-trifluoromethyl-pyrazolo[1,5-a]pyrimidine-2-carboxylic acid benzo[1,3]dioxol-5-ylamide] | – | 2.6
Cc1cc(N2CCN(C/C=C/c3ccccc3)CC2)n2ncnc2n1 [5-Methyl-7-[4-((E)-3-phenyl-allyl)-piperazin-1-yl]-[1,2,4]triazolo[1,5-a]pyrimidine] | – | > 30
FC(F)(F)c1ccc(N2CCN(c3cc(-c4ccccc4)nc4ncnn34)CC2)nc1 [5-Phenyl-7-[4-(5-trifluoromethyl-pyridin-2-yl)-piperazin-1-yl]-[1,2,4]triazolo[1,5-a]pyrimidine] | 31.9 | –
CCC(NCCOc1ccc(Cl)cc1)=C1C(=O)N(C)C(=O)N(C)C1=O [5-[1-[2-(4-chlorophenoxy)ethylamino]propylidene]-1,3-dimethyl-1,3-diazinane-2,4,6-trione] | – | 5.04
CCOC(=O)c1oc2ccc(S(=O)(=O)n3nc(-c4ccc(OC)cc4)cc3N)cc2c1C [5-[5-amino-3-(4-methoxyphenyl)pyrazol-1-yl]sulfonyl-3-methyl-coumarilic acid ethyl ester] | 30.4 | –
Cc1ccc(OCc2nc(-c3ccccc3)no2)c(C)c1 [5-[(2,4-dimethylphenoxy)methyl]-3-phenyl-1,2,4-oxadiazole] | – | 2.66
Clc1ccc(OCc2nc(-c3ccncc3)no2)c(Br)c1 [5-[(2-bromanyl-4-chloranyl-phenoxy)methyl]-3-pyridin-4-yl-1,2,4-oxadiazole] | – | 3.86
CC(C)c1ccc(OCc2nc(-c3ccccn3)no2)c(Br)c1 [5-[(2-bromanyl-4-propan-2-yl-phenoxy)methyl]-3-pyridin-2-yl-1,2,4-oxadiazole] | – | 4.45
COC(=O)c1cc(NCc2ccccc2F)ccc1N1CCOCC1 [5-[(2-fluorobenzyl)amino]-2-morpholino-benzoic acid methyl ester] | – | 8.9
Oc1c(C(c2ccco2)N2CCN(C(c3ccccc3)c3ccccc3)CC2)sc2ncnn12 (configuration not stated) [5-[(4-benzhydrylpiperazin-1-yl)-(furan-2-yl)methyl]-[1,3]thiazolo[3,2-b][1,2,4]triazol-6-ol] | 15.9 | –
COc1ccccc1-n1nnnc1SCc1cc2c(cc1Br)OCO2 [5-[(6-bromanyl-1,3-benzodioxol-5-yl)methylsulfanyl]-1-(2-methoxyphenyl)-1,2,3,4-tetrazole] | – | > 10
COC(=O)c1cc(CSc2nnc(-c3ccccc3)c(-c3ccccc3)n2)oc1C [5-[[(5,6-diphenyl-1,2,4-triazin-3-yl)thio]methyl]-2-methyl-3-furancarboxylic acid methyl ester] | – | 1.73
COC(=O)c1ccc(CSc2nc3ccccc3c(=O)n2Cc2ccco2)o1 [5-[[[3-(2-furanylmethyl)-4-oxo-2-quinazolinyl]thio]methyl]-2-furancarboxylic acid methyl ester] | 18.8 | –
O=C(Nc1ccc(N2CCCC2)c(Cl)c1)c1ccc(Br)o1 [5-bromanyl-N-(3-chloranyl-4-pyrrolidin-1-yl-phenyl)furan-2-carboxamide] | – | 4.15
O=S(=O)(NCc1ccncc1)c1ccc(Br)s1 [5-bromanyl-N-(pyridin-4-ylmethyl)thiophene-2-sulfonamide] | – | 2.63
Cc1nn(Cc2ccc(Cl)c(Cl)c2)c(C)c1NC(=O)c1cc(C2CC2)on1 [5-cyclopropyl-N-[1-(3,4-dichlorobenzyl)-3,5-dimethyl-pyrazol-4-yl]isoxazole-3-carboxamide] | 10.6 | –
CCc1ccc(S(=O)(=O)NCCc2csc(-c3ccccc3)n2)s1 [5-ethyl-N-[2-(2-phenyl-1,3-thiazol-4-yl)ethyl]thiophene-2-sulfonamide] | – | 8.69
COC(=O)c1c(C)n(-c2ccc(OC)cc2)c2ccc(O)cc12 [5-hydroxy-1-(4-methoxyphenyl)-2-methyl-3-indolecarboxylic acid methyl ester] | – | 6.29
O=C(Nc1ccc(Oc2ccccc2)cc1)c1cnc2n(c1=O)CCS2 [5-keto-N-(4-phenoxyphenyl)-2,3-dihydrothiazolo[3,2-a]pyrimidine-6-carboxamide] | 16.6 | –
Cc1ccc(C(=O)Nc2nc(COc3ccccc3)cs2)s1 [5-methyl-N-[4-(phenoxymethyl)-1,3-thiazol-2-yl]thiophene-2-carboxamide] | 12.1 | –
Cc1ccc(S(=O)(=O)Nc2cccc3ncccc23)s1 [5-methyl-N-quinolin-5-ylthiophene-2-sulfonamide] | – | 9.62
Cn1nc(C(C)(C)C)cc1C(=O)NCc1ccc(N2CCCC2=O)cc1 [5-tert-Butyl-2-methyl-2H-pyrazole-3-carboxylic acid 4-(2-oxo-pyrrolidin-1-yl)-benzylamide] | – | 3.86
